Earlier results, collected in patent US20210338635A1, “Dosage Regimen for the Treatment of Multiple Sclerosis with a S1P Receptor Modulator” (Argentum Pharmaceuticals LLC, priority 2020, published 2021).

Legend:
[1] = humans; relapsing multiple sclerosis, oral
[2] = administration of 1.25 mg; healthy patients; treatment initiation

Row | Structure (SMILES) | efficacy in the treatment of multiple sclerosis [1] | decrease in heart rate [2]
1 | CCCCCCCCc1ccc(CCC(N)(CO)CO)cc1 [FTY720] | efficacy in the treatment of multiple sclerosis has been shown in humans | 
2 | CCc1cc(/C(C)=N/OCc2ccc(C3CCCCC3)c(C(F)(F)F)c2)ccc1CN1CC(C(=O)O)C1 [BAF-312, 1-({4-[(1E)-1-({[4-Cyclohexyl-3(trifluoromethyl)phenyl]methoxy}imino)ethyl]-2-ethylphenyl}methyl)azetidine-3-carboxylic acid] |  | approximately 8 beets/min
